The values below come from the Kinase Knowledgebase extract (Sharma et al. 2016).

Bounds are passed on as bounds.

The target in this test is PIK3CA (human) (UniProt P42336). As to the kind of experiment: Inhibition of PIK3CA Kinase Activity.
Sequence of PIK3CA (human) (P42336 whole entry, looked up): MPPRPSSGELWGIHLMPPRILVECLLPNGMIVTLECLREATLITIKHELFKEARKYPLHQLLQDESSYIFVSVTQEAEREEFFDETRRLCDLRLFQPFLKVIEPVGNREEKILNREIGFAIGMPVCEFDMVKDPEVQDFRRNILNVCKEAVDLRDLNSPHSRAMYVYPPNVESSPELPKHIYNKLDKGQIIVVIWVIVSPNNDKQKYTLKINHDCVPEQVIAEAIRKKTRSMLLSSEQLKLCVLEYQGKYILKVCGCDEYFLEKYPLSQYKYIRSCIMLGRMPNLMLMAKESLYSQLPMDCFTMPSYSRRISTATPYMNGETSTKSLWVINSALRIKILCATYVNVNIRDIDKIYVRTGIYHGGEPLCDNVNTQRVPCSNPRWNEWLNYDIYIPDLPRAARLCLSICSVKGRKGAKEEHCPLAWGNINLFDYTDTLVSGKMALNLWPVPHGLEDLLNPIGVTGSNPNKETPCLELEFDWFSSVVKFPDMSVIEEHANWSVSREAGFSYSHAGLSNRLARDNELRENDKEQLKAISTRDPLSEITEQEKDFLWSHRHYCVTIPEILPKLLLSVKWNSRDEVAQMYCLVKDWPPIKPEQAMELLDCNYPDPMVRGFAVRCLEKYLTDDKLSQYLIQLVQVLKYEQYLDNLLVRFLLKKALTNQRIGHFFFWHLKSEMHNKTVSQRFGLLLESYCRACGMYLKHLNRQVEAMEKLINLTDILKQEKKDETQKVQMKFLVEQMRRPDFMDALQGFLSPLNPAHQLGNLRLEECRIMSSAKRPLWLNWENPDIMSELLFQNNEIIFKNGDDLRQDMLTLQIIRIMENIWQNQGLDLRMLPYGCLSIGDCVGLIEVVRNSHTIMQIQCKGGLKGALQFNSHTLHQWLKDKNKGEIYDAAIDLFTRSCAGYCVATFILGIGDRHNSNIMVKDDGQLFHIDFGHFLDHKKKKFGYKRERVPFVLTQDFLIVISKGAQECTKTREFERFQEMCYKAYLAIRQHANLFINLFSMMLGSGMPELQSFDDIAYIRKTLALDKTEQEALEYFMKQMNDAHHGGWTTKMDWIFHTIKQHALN
On to `CCC(C)n1cnc2c(-c3cnc(N)cn3)nc(N3CCOCC3)nc21` (stereo not given), for which the IC50 was below 1000 nM. As to `CC1CCCCC1n1cnc2c(-c3cnc(N)cn3)nc(N3CCOCC3)nc21` (stereo not given), the IC50 was below 1000 nM.

In the case of `Nc1cnc(-c2nc(N3CCOCC3)nc3c2ncn3C2CCc3ccccc32)cn1` (stereo not given), the IC50 is below 1000 nM. In turn, `Nc1cnc(-c2nc(N3CCOCC3)nc3[nH]cnc23)cn1` showed an IC50 below 1000 nM.

With `CCC(C#N)n1cnc2c(-c3cnc(N)cn3)nc(N3CCOCC3)nc21` (stereo not given), the IC50 was below 1000 nM. To `Nc1cnc(-c2nc(N3CCOCC3)nc3c2ncn3C2CCCC2)cn1` belongs below 1000 nM. For the compound `Nc1cnc(-c2nc(N3CCOCC3)nc3c2ncn3-c2ccc3c(c2)OCO3)cn1`, the IC50 is below 1000 nM. For `CC(C)C(C)n1cnc2c(-c3cnc(N)cn3)nc(N3CCOCC3)nc21` (stereo not given) the value was below 1000 nM. As for `Nc1cnc(-c2nc(N3CCOCC3)nc3c2ncn3CC2CC2)cn1`, the IC50 was below 1000 nM. To `CCC(C)n1c(Br)nc2c(-c3cnc(N)cn3)nc(N3CCOCC3)nc21` (stereo not given) belongs below 1000 nM; to `Nc1cnc(-c2nc(N3CCOCC3)nc3c2ncn3C2CCN(c3ccccc3)C2)cn1` (stereo not given), below 1000 nM. To `Nc1cnc(-c2nc(N3CCOCC3)nc3c2ncn3C2Cc3ccccc3C2)cn1` belongs below 1000 nM; to `Nc1cnc(-c2nc(N3CCOCC3)nc3c2ncn3C2CCc3ccccc3C2)cn1` (stereo not given), below 1000 nM; to `Nc1cnc(-c2nc(N3CCOCC3)nc3c2nc(Br)n3C2CCOC2)cn1` (stereo not given), below 1000 nM. `Nc1cnc(-c2nc(N3CCOCC3)nc3c2ncn3-c2ccccc2)cn1` yielded an IC50 below 1000 nM. For `Nc1cnc(-c2nc(N3CCOCC3)nc3c2ncn3Cc2c(F)cccc2F)cn1` the value was below 1000 nM; for `COCC(C)n1cnc2c(-c3cnc(N)cn3)nc(N3CCOCC3)nc21` (stereo not given), below 1000 nM. Regarding `CCC(CC)n1cnc2c(-c3cnc(N)cn3)nc(N3CCOCC3)nc21`, the IC50 is below 1000 nM. For `CC(C1CC1)n1cnc2c(-c3cnc(N)cn3)nc(N3CCOCC3)nc21` (stereo not given) the value was below 1000 nM; for `Nc1cnc(-c2nc(N3CCOCC3)nc3c2ncn3C2CCC2)cn1`, below 1000 nM. For `Nc1cnc(-c2nc(N3CCOCC3)nc3c2ncn3C2CCN(c3ccccc3)CC2)cn1` the value was below 1000 nM; for `Nc1cnc(-c2nc(N3CCOCC3)nc3c2ncn3C2CCOC2)cn1` (stereo not given), below 1000 nM; for `Cc1cccc(-n2cnc3c(-c4cnc(N)cn4)nc(N4CCOCC4)nc32)c1`, below 1000 nM. To `Nc1cnc(-c2nc(N3CCOCC3)nc3c2ncn3Cc2ccccc2)cn1` belongs below 1000 nM; to `CC(C)(C)Cn1cnc2c(-c3cnc(N)cn3)nc(N3CCOCC3)nc21`, below 1000 nM.

As a reminder, the IC50 is the concentration at which inhibition is half-maximal.
